Reference: patent US20250221963A1 (GH RESEARCH IRELAND LIMITED, priority 2022, published 2025)
Several values for one entry are separate records, joined by “and”; a condition that tells them apart may be missing. Equal values may be shown once.

Key:
[1] = tested on: patients with postpartum depression (PPD); assay: Clinical trial of inhaled 5-MeO-DMT in postpartum depression; conditions: PPD patient
Experimental: The single-arm, open-label clinical trial will involve 15 adult female patients with clinically diagnosed postpartum depression (PPD).
The second dose (12 mg) will only be administered if: • a. […] The 6 mg dose was safe and well-tolerated according to the investigator, • c. Any psychoactive effects (PsE) of the prior dose have subsided, and • d. Pre-dose vital parameters and forced expiratory volume in one second (FEV1) are in normal range, or if outside of the normal range, are not clinically significant according to the investigator. • 3. Similarly, a third dose (18 mg) will only be administered if: • a. […] The 12 mg dose was safe and well-tolerated according to the investigator, and • c. Any PsE of the prior dose have subsided, and • d. Pre-dose vital parameters and forced expiratory volume in one second (FEV1) are in normal range, or if outside of the normal range, are not clinically significant according to the investigator.
The patients will be assessed for a peak psychedelic experience (based on a patient-scored visual analogue scale, the PE scale), sedation, and other endpoints after dosing. Follow-up visits are planned for Day 1, and Day 7 after the dosing day.
The following criteria must be met by all patients considered for clinical trial participation: • 1. Is female and in the age range between 18 and 45 years (inclusive) at screening. • 2. Has a body mass index (BMI) in the range of 18.5 and 35 kg/m^2 (inclusive) at screening. • 3. Meets the trial criteria for PPD as assessed by a trial psychiatrist or registered psychologist: • a. Diagnosis of Major Depressive Disorder without psychotic features, confirmed by the Mini-International Neuropsychiatric Interview (MINI), with peri-partum onset that began no earlier than gestation and no later than the first 4 weeks postpartum. • b. Has a Montgomery-Åsberg Depression Rating Scale (MADRS) total score of equal to or greater than 28 at screening and pre-dose on Day 0. • 6. […] Patients must have a negative pregnancy test at screening and on the pre-test day (Day −1). • 5. Is willing to delay start of other antidepressant or anxiety medication until after the end of the trial at Day 7 and agrees to keep any psychotherapy unchanged during the trial.
A potential patient who meets any of the following key exclusion criteria will be excluded from participation in this trial: • 1. Has, based on history, psychiatric assessment, and evaluation of the MINI, a current or prior diagnosis of bipolar disorder, a manic or hypomanic episode, a psychotic disorder, Major Depressive Disorder (MDD) or other mood disorder with psychotic features, obsessive compulsive disorder, post-traumatic stress disorder (PTSD), autism spectrum disorder, borderline personality disorder, schizophrenia, delusional disorder, paranoid personality disorder, schizoaffective disorder, clinically significant intellectual disability, or any other psychiatric comorbidity that renders the patient unsuitable for the trial according to the investigator's judgment. • 2. Has one or more first or second degree relatives with a current or previously diagnosed bipolar disorder, psychotic disorder or other mood disorder (including MDD) with psychotic features. • 3. Is in the judgement of a trial psychiatrist or registered psychologist, at significant risk for suicide based on history, psychiatric assessment, and evaluation of suicidal ideation and suicidal behaviour based on the Columbia-Suicide Severity Rating Scale (C-SSRS). • 4. Has taken anti-depressive medication within 14 days or 5 half-lives (whichever is longer) prior to dosing (exception: within the last 5 weeks in the case of fluoxetine). • 5.

[2] = tested on: Salmonella typhimurium TA98, TA100, TA1535 and TA1537; assay: Bacterial mutation test, Salmonella typhimurium; format: cell-based; conditions: up to 5000 μg/plate, absence and presence of S-9
Experimental: These conditions included treatments at concentrations up to 5000 μg/plate (the maximum recommended concentration according to current regulatory guidelines), in the absence and in the presence of a rat liver metabolic activation system (S-9).

COc1ccc2[nH]cc(CCN(C)C)c2c1 [5-MeO-DMT]
BIMF Adjustment Δ (Day 7) [1]: 1
BIMF Infant Care Δ (Day 7) [1]: 0
BIMF Management Δ (Day 7) [1]: 5
BIMF Mother-Child Interaction Δ (Day 7) [1]: 2
BIMF Psychological Well-being Δ (Day 7) [1]: 9
BIMF Self-Care Δ (Day 7) [1]: 4
BIMF Social Support Δ (Day 7) [1]: 1
BIMF TOTAL Δ (Day 7) [1]: 13
ECG (3 hours), safety laboratory analyses (7 days), CADSS (3 hours, 1 day, 7 days) [1]: unremarkable
MADRS response and MADRS remission criteria [1]: fulfilled standard criteria for MADRS response
Reported adverse events (cramping left abdominal pain and headache, Day 0) [1]: mild, short-lasting and resolved spontaneously
Time to clinical remission after administration according to the IDR [1]: ≤ 2 h
Tolerability of the inhalation procedure [1]: well tolerated with no inhalation-related adverse events
Total MADRS improvement ([1]; 2 hr): 24
Total MADRS score ([1]; 2 hr, baseline 29): 5
BPRS Tension improvement ([1]; Day 1): 5
Total MADRS improvement ([1]; Day 1): 29
Total MADRS score ([1]; Day 1, baseline 29): 0
BIMF Adjustment % Improvement ([1]; Day 7): 20.00%
BIMF Infant Care % Improvement ([1]; Day 7): 0.00%
BIMF Management % Improvement ([1]; Day 7): 18% and 17.86%
BIMF Mother-Child Interaction % Improvement ([1]; Day 7): 13.33%
BIMF Psychological Well-being % Improvement ([1]; Day 7): 20.45%
BIMF Self-Care % Improvement ([1]; Day 7): 44% and 44.44%
BIMF Social Support % Improvement ([1]; Day 7): 5.88%
BIMF total score improvement ([1]; Day 7): 14%
Total MADRS improvement ([1]; Day 7): 28
BIMF functional domain Adjustment score ([1]; Day 7, Day 0 score 5, maximum 12): 6
BIMF item 6 (people in my life that I can trust to care for my baby) score ([1]; Day 7, Day 0 score 6): 6
BIMF functional domain Self-Care score ([1]; Day 7, Day 0 score 9, maximum 18): 13
BIMF functional domain Infant Care score ([1]; Day 7, Day 0 score 12, maximum 12): 12
BIMF functional domain Mother-Child Interaction score ([1]; Day 7, Day 0 score 15, maximum 18): 17
BIMF functional domain Social Support score ([1]; Day 7, Day 0 score 17, maximum 18): 18
BIMF functional domain Management score ([1]; Day 7, Day 0 score 28, maximum 36): 33
BIMF functional domain Psychological Well-being score ([1]; Day 7, Day 0 score 44, maximum 60): 53
Total MADRS score ([1]; Day 7, baseline 29): 1
BPRS Tension improvement ([1]; Discharge): 5
Changes in vital parameters ([1]; shortly after administration): temporary, clinically non-relevant increase in heart rate and blood pressure
Induction of mutation [2]: did not induce mutation
